Measurements reported in ChEMBL document CHEMBL4387741, “Optimization of novel reversible Bruton's tyrosine kinase inhibitors identified using Tethering-fragment-based screens” (Bioorg Med Chem, 2019).

Key:
[1] = biological target: Serine/threonine-protein kinase TAO3 (Homo sapiens) (UniProt Q9H2K8); test: Inhibition of wild-type human partial length TAOK3 (M1 to T316 residues) expressed in mammalian expression system at 1 uM by Kinomescan method relative to control
[2] = biological target: Tyrosine-protein kinase ZAP-70 (Homo sapiens) (UniProt P43403); test: Inhibition of wild-type human partial length ZAP70 (D20 to G299 residues) expressed in mammalian expression system at 1 uM by Kinomescan method relative to control
[3] = biological target: Homeodomain-interacting protein kinase 1 (Homo sapiens) (UniProt Q86Z02); test: Inhibition of wild-type human partial length HIPK1 (M146 to I555 residues) expressed in mammalian expression system at 1 uM by Kinomescan method relative to control
[4] = biological target: Mitogen-activated protein kinase 15 (Homo sapiens) (UniProt Q8TD08); test: Inhibition of wild-type human partial length ERK8 (M1 to P437 residues) expressed in bacterial expression system at 1 uM by Kinomescan method relative to control
[5] = biological target: Platelet-derived growth factor receptor alpha (Homo sapiens) (UniProt P16234); test: Inhibition of wild-type human partial length PDGFRA (V575 to D1002 residues) expressed in mammalian expression system at 1 uM by Kinomescan method relative to control
[6] = biological target: Cyclin-dependent kinase 18 (Homo sapiens) (UniProt Q07002); test: Inhibition of wild-type human full length PCTK3 (M3 to F474 residues) expressed in bacterial expression system at 1 uM by Kinomescan method relative to control
[7] = biological target: Mitotic checkpoint serine/threonine-protein kinase BUB1 (Homo sapiens) (UniProt O43683); test: Inhibition of wild-type human partial length BUB1 (Q724 to K1085 residues) expressed in mammalian expression system at 1 uM by Kinomescan method relative to control
[8] = biological target: NT-3 growth factor receptor (Homo sapiens) (UniProt Q16288); test: Inhibition of wild-type human partial length TRKC (Q531 to G825 residues) expressed in mammalian expression system at 1 uM by Kinomescan method relative to control
[9] = biological target: Serine/threonine-protein kinase 36 (Homo sapiens) (UniProt Q9NRP7); test: Inhibition of wild-type human partial length STK36 (M1 to T271 residues) expressed in bacterial expression system at 1 uM by Kinomescan method relative to control
[10] = biological target: Serine/threonine-protein kinase MRCK gamma (Homo sapiens) (UniProt Q6DT37); test: Inhibition of wild-type human partial length DMPK2 (S46 to S408 residues) expressed in bacterial expression system at 1 uM by Kinomescan method relative to control
[11] = biological target: AP2-associated protein kinase 1 (Homo sapiens) (UniProt Q2M2I8); test: Inhibition of human wild-type AAK1 (G25 to L333 residues) expressed in bacterial expression system at 1 uM by Kinomescan method relative to control
[12] = biological target: Serine/threonine-protein kinase 17A (Homo sapiens) (UniProt Q9UEE5); test: Inhibition of wild-type human partial length DRAK1 (R32 to E363 residues) expressed in bacterial expression system at 1 uM by Kinomescan method relative to control
[13] = biological target: Serine/threonine-protein kinase Nek6 (Homo sapiens) (UniProt Q9HC98); test: Inhibition of wild-type human full length NEK6 (M8 to T313 residues) expressed in bacterial expression system at 10 uM by Kinomescan method relative to control
[14] = biological target: Myotonin-protein kinase (Homo sapiens) (UniProt Q09013); test: Inhibition of wild-type human partial length DMPK (V47 to V415 residues) expressed in bacterial expression system at 10 uM by Kinomescan method relative to control
[15] = biological target: Activin receptor type-1B (Homo sapiens) (UniProt P36896); test: Inhibition of wild-type human ACVR1B (S187 to I505 residues) expressed in bacterial expression system at 10 uM by Kinomescan method relative to control
[16] = biological target: Phosphatidylinositol 5-phosphate 4-kinase type-2 gamma (Homo sapiens) (UniProt Q8TBX8); test: Inhibition of wild-type human partial length PIP5K2C (M1 to A421 residues) expressed in mammalian expression system at 10 uM by Kinomescan method relative to control
[17] = biological target: Receptor-type tyrosine-protein kinase FLT3 (Homo sapiens) (UniProt P36888); test: Inhibition of wild-type human partial length FLT3 (V592 to Y969 residues) expressed in bacterial expression system at 10 uM by Kinomescan method relative to control
[18] = biological target: Homeodomain-interacting protein kinase 3 (Homo sapiens) (UniProt Q9H422); test: Inhibition of wild-type human partial length HIPK3 (M153 to N562 residues) expressed in mammalian expression system at 10 uM by Kinomescan method relative to control
[19] = biological target: Mitogen-activated protein kinase kinase kinase kinase 1 (Homo sapiens) (UniProt Q92918); test: Inhibition of wild-type human full length HPK1 (M1 to R799 residues) expressed in bacterial expression system at 10 uM by Kinomescan method relative to control
[20] = biological target: Rho-associated protein kinase 2 (Homo sapiens) (UniProt O75116); test: Inhibition of wild-type human partial length ROCK2 (M1 to T431 residues) expressed in mammalian expression system at 10 uM by Kinomescan method relative to control
[21] = tested on: Epidermal growth factor receptor (Homo sapiens), P00533 [L858R]; test: Inhibition of human partial length EGFR L858R mutant (R669 to V1011 residues) expressed in bacterial expression system at 10 uM by Kinomescan method relative to control
[22] = biological target: Inhibitor of nuclear factor kappa-B kinase subunit epsilon (Homo sapiens) (UniProt Q14164); test: Inhibition of wild-type human full length IKK-epsilon (M1 to V716 residues) expressed in mammalian expression system at 10 uM by Kinomescan method relative to control
[23] = biological target: Uncharacterized serine/threonine-protein kinase SBK3 (Homo sapiens) (UniProt P0C264); test: Inhibition of wild-type human partial length SgK110 (L22 to R329 residues) expressed in bacterial expression system at 10 uM by Kinomescan method relative to control
[24] = biological target: Testis-specific serine/threonine-protein kinase 3 (Homo sapiens) (UniProt Q96PN8); test: Inhibition of wild-type human full length TSSK3 (M1 to T268 residues) expressed in mammalian expression system at 10 uM by Kinomescan method relative to control
[25] = tested on: ALK tyrosine kinase receptor (Homo sapiens), Q9UM73 [L1196M]; test: Inhibition of wild-type human partial length ALK L1196M mutant (I1088 to E1409 residues) expressed in mammalian expression system at 10 uM by Kinomescan method relative to control
[26] = biological target: Macrophage colony-stimulating factor 1 receptor (Homo sapiens) (UniProt P07333); test: Inhibition of wild-type human partial length autoinhibited CSF1R (Y538 to S939 residues) expressed in mammalian expression system at 10 uM by Kinomescan method relative to control
[27] = biological target: Serine/threonine-protein kinase N2 (Homo sapiens) (UniProt Q16513); test: Inhibition of wild-type human partial length PKN2 (E634 to C984 residues) expressed in bacterial expression system at 10 uM by Kinomescan method relative to control

Chain of ALK tyrosine kinase receptor (Homo sapiens), Q9UM73 [L1196M] (Q9UM73 whole entry L1196M, looked up, the tested form may be a part): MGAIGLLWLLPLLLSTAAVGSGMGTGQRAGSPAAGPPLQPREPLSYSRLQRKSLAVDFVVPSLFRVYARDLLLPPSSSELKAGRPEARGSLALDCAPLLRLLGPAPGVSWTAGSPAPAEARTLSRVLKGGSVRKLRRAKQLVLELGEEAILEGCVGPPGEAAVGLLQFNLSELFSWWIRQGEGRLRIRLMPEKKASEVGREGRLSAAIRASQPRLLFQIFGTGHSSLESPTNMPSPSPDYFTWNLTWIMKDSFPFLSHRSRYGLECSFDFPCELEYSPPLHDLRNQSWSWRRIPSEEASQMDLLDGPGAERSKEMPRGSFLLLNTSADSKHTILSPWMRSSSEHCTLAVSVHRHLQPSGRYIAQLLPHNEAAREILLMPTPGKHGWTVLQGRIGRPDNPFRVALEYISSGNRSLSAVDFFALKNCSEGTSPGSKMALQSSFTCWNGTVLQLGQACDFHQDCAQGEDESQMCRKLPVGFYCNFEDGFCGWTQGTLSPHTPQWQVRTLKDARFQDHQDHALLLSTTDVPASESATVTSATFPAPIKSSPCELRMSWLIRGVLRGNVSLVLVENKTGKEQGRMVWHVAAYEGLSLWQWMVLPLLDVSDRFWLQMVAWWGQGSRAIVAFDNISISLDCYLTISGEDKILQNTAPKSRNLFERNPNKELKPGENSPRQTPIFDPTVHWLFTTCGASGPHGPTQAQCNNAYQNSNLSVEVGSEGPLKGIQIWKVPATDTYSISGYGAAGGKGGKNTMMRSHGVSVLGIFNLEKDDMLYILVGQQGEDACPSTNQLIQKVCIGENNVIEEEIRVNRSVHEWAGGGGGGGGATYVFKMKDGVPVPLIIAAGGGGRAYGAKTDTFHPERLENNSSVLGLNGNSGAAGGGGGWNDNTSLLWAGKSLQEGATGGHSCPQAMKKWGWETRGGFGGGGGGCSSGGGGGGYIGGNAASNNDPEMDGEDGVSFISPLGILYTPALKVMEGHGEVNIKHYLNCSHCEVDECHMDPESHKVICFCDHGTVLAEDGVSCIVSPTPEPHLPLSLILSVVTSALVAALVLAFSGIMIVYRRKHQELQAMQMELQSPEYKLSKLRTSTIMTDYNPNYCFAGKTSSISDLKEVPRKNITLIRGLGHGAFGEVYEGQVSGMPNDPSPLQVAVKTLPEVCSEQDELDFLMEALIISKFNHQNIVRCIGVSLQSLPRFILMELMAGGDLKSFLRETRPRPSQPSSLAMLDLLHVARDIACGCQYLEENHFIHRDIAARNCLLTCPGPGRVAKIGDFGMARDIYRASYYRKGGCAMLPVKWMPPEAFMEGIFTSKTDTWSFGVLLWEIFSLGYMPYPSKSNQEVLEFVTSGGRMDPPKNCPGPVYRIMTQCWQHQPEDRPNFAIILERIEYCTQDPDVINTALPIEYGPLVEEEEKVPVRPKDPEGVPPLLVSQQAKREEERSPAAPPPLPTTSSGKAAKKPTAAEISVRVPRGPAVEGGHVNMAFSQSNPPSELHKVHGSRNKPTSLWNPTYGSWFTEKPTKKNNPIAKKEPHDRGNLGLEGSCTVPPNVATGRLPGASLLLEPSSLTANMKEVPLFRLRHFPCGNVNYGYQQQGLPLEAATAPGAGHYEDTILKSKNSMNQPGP
Chain of Macrophage colony-stimulating factor 1 receptor (Homo sapiens) (P07333 whole entry, the tested form may be a part): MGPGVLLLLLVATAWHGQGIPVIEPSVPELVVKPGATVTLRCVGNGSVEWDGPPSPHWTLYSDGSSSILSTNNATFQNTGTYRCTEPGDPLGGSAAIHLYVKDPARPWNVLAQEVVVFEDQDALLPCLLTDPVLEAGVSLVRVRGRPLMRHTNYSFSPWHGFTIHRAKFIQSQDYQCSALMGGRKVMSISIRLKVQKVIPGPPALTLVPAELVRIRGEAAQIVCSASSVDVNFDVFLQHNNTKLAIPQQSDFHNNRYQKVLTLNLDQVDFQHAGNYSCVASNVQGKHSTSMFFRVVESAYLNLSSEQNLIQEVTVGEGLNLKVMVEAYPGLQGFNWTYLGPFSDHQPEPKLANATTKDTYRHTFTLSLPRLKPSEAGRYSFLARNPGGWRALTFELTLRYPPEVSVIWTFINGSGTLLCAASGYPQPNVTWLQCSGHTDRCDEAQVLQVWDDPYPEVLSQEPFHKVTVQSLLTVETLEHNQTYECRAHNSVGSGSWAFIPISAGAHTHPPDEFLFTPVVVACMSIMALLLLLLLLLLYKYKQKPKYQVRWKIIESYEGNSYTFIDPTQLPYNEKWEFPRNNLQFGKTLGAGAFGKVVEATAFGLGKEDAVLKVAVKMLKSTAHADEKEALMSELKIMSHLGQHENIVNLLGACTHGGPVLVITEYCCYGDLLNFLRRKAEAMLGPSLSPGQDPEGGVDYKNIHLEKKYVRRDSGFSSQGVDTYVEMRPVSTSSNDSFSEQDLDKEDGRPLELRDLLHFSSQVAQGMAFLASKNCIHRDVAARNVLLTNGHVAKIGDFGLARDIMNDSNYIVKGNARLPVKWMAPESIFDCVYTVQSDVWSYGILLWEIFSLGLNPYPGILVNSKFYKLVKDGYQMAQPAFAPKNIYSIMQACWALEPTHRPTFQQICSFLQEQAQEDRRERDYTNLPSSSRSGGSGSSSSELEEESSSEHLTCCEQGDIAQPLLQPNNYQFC
Chain of Inhibitor of nuclear factor kappa-B kinase subunit epsilon (Homo sapiens) (Q14164 whole entry, the tested form may be a part): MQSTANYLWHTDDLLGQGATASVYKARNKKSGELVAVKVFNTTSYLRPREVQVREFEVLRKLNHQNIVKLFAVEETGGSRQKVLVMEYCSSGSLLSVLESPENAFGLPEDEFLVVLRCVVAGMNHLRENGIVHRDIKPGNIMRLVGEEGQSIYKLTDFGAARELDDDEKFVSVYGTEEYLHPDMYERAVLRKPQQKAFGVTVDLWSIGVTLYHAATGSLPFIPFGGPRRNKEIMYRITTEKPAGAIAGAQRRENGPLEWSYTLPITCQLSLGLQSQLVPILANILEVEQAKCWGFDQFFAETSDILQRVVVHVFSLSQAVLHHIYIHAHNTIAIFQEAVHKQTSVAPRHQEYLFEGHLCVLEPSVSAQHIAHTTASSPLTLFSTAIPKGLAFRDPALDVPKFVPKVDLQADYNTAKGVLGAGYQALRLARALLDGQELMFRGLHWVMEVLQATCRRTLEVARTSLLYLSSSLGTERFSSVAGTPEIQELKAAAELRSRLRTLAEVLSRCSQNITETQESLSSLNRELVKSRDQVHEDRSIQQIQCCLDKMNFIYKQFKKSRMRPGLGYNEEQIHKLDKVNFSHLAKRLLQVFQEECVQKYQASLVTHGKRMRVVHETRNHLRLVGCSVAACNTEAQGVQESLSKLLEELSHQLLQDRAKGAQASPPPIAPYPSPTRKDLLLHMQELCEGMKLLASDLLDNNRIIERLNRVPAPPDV
Chain of Serine/threonine-protein kinase MRCK gamma (Homo sapiens) (Q6DT37 whole entry, the tested form may be a part): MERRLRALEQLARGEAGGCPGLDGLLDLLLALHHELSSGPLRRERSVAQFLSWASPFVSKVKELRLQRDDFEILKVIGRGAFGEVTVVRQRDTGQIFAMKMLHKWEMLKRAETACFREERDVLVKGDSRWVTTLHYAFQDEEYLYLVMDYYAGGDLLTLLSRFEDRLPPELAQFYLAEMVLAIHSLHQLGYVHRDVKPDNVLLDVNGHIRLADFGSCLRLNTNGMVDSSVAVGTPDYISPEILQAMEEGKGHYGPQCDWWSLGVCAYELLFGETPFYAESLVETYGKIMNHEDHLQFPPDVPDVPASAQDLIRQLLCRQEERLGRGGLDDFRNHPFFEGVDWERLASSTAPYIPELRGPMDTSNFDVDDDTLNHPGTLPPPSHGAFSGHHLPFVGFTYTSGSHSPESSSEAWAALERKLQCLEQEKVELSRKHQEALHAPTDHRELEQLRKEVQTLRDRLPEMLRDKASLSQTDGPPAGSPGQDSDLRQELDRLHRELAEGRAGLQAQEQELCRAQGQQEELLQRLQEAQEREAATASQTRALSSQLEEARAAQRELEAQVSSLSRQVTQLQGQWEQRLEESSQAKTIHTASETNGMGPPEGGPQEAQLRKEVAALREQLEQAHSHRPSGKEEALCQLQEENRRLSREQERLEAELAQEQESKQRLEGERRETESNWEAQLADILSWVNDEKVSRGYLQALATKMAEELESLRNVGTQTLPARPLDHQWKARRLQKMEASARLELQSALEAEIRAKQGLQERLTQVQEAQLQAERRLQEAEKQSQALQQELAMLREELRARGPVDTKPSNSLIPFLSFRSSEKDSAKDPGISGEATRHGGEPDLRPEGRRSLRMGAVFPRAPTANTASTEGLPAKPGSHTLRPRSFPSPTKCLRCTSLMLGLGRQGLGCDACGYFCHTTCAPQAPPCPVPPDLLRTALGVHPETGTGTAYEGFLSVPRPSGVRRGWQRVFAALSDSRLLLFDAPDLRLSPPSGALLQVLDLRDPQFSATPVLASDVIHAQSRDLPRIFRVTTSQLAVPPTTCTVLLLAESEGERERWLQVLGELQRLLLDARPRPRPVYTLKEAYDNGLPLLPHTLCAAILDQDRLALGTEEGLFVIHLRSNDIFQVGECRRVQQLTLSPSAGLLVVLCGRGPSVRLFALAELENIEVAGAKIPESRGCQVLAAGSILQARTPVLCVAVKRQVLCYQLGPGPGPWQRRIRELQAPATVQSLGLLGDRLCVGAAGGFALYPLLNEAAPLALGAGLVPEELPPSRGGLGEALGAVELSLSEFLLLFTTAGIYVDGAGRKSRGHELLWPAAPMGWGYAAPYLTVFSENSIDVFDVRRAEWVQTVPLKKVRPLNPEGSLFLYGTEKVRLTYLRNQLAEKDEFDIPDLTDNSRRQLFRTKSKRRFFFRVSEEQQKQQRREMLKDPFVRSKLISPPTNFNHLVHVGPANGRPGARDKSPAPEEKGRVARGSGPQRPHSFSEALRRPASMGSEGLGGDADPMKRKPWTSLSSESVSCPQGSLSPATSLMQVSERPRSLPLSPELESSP
Chain of Testis-specific serine/threonine-protein kinase 3 (Homo sapiens) (Q96PN8 whole entry, the tested form may be a part): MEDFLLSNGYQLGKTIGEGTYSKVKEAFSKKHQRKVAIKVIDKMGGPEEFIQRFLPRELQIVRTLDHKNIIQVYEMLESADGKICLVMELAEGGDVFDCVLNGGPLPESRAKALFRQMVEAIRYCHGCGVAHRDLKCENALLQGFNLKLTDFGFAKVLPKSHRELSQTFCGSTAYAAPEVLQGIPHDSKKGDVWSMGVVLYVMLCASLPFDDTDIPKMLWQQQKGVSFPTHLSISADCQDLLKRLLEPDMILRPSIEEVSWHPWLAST

`O=C(Nc1cccc([C@@H]2CN(c3ncnc4[nH]ccc34)CCN2CCO)c1)Nc1c(F)cccc1N1CCCC1` gave an inhibition [1] of 88%, an inhibition [2] of 80% and an inhibition [3] of 80%. The inhibition [4] was 81%, the inhibition [5] was 85% and the inhibition [6] was 97%. For the same compound, the inhibition [7] was 87%, the inhibition [8] was 99% and the inhibition [9] was 100%. It also gave an inhibition [10] of 100%, an inhibition [11] of 75% and an inhibition [12] of 82%.

`O=C(Nc1cccc([C@H]2CCCN(c3ncnc4[nH]ccc34)C2)c1)Nc1ccccc1N1CCCC1` gave an inhibition [13] of 69%, an inhibition [14] of 100% and an inhibition [15] of 100%. The inhibition [16] was 48%, the inhibition [17] was 7.2% and the inhibition [18] was 47%. It also gave an inhibition [19] of 100%, an inhibition [20] of 49% and an inhibition [21] of 76%. It also gave an inhibition [22] of 67%, an inhibition [23] of 100% and an inhibition [24] of 85%. For the same compound, the inhibition [25] was 63%, the inhibition [26] was 64% and the inhibition [27] was 32%.
